These results are taken from patent US8173863B2, “Sucrose biosensors and methods of using the same” (Carnegie Institution of Washington, priority 2005, dated 2012).

For assay [1], the target named is Agrobacterium tumefaciens ThuE (AtThuE) sucrose binding protein carrying N192D (SEQ ID NO: 2) fused between ECFP and EYFP, sensor FLIPsuc4μ (FLIPsuc), wt (indic (Agrobacterium fabrum, UniProt A9CF11, N212D)). Nature of the assay: in vitro FRET titration of purified sensor FLIPsuc4μ. The note with it: for recognition (binding): even after addition of higher sugar concentrations (50× Kd); for binding (extent relative to sucrose): 5× Kd (20 μM), FRET micro plate assay (FIG. 4); for affinity relative to that for sucrose: FIG. 1C titration curves; for Δratio (maximum ratio change): in vitro, no binding to saturated binding. The source says: (§1) Because the maltose/trehalose/sucrose binding protein from Agrobacterium tumefaciens (AtThuE) is 78.9% identical over predicted mature region of the SmThuE protein (SEQ ID NO: 2) and is 21.4% homologous to the maltose binding protein from E. coli (malE), we attempted to clone the AtThuE binding protein. To isolate the gene, a PCR product from genomic Agrobacterium tumefaciens (strain C58C1) DNA encoding mature AtThuE without signal sequence and stop codon was cloned into the KpnI site between ECFP and EYFP genes (FIG. 1A). The chimeric gene was inserted into pRSET (Invitrogen) and transferred to E. coli BL21(DE3)Gold (Stratagene). […] It is unknown whether this difference corresponds to a mutation or natural variation. Since N192D was outside the binding pocket and since AtThuE carrying the mutation was functional as a sugar sensor (see Table 1), all further experiments were carried out with the nanosensor named FLIPsuc4μ carrying the mutation N192D. FLIPsuc proteins were extracted from BL21(DE3)gold and purified as described (Fehr et al. 2002).
(§2) A DNA fragment encoding the mature Agrobacterium tumefaciens maltose/trehalose/sucrose BP protein was fused between the ECFP and EYFP sequences as described above. The chimeric gene was expressed in E. coli and the protein product purified and assayed for substrate specificity.
(§3) Substrate titration curves and substrate specificity analysis were performed on Safire (Tecan) fluorometer. ECFP was excited at 433 nm and emission was set to 485 nm and 528 nm for ECFP and EYFP, respectively (bandwidth 12 nm). All in vitro analyses were performed in 20 mM MOPS buffer at pH 7. FRET was determined as EYFP-ECFP emission intensity ratio. Using the change in ratio upon ligand binding, binding constants (Kd) were determined by fitting substrate titration curves to equation 1: S=1−(r−rmin)(rmax−rmin)=[S]b/[P]t=n[S]/(Kd+[S]), where [S] is substrate concentration; [S]b, concentration of bound substrate; n, number of binding sites; [P]t, total concentration of binding protein; r, ratio; rmin, minimum ratio in absence of ligand; rmax, maximum ratio at saturation. Hill coefficients were determined using Hill equation 2: S=(n[S]^n)/(Kd+[S]^n).
(§4) SmThuE is mainly functioning as a trehalose and maltose binding protein. Sucrose is thought to be transported to a lesser extent. FLIPsuc4μ was therefore incubated with trehalose, maltose and other related sugars to test for its binding capacities. Substrate-induced conformational changes were measured using FRET in micro plate assays. […] Maltose and glucose were chosen for further analysis of FLIPsuc4μ and its mutants since they are important sugars in plants and might therefore interfere with sucrose measurements in vivo. […] Most mutants show similar patterns with higher affinity for maltose than sucrose. FLIPsuc-10μ is the most significant example with an 83 times higher affinity for maltose than sucrose (Table 1). The D115 mutants both show the highest affinity for maltose compared to sucrose and […], but to a different extent.

For assay [2], the system named is Alicyclobacillus acidocaldarius maltose uptake. The note with it: cited from earlier work.
Assay [3] deals with Agrobacterium tumefaciens AtThuE sensor FLIPsuc4μ variant D115E (FLIPsuc3m, FLIPsucD115E) (Agrobacterium fabrum, UniProt A9CF11, D135E/N212D). The experiment in a line: in vitro FRET titration of affinity mutant FLIPsuc3m. In kind it is binding. The note with it: for Δratio (delta ratio): no binding to saturated binding. As to the method:
as §3
(§5) To expand the dynamic range of the sucrose sensor, site directed mutagenesis was used as described above to lower the binding affinity of the sucrose binding domain. Affinity mutants of FLIPsuc4μ were generated. Alignment together with modeling of AtThuE with maltose binding proteins that have been crystallized helped predict residues important for ligand binding. […] Mutant forms carrying substitutions F113A, D115A, D115E, D115N, W244A, Y246A and W283A were generated using Kunkel mutagenesis (Kunkel et al. 1991) in the mutant background of FLIPsuc41t. The affinity mutants were designated as FLIPsucF113A, FLIPsucW283A, FLIPsucD115A, FLIPsucD115E, FLIPsucY246A, and FLIPsucW244A. All six mutants have lower affinities for sucrose than that of FLIPsuc4μ, with a Kd value varying from 10 μM to the higher mM range (Table 1). The starting ratio between EYFP and ECFP ranges from 1.4 to close to 2.0, which is also similar to what has been seen in other sugar sensors (FLIPmal, FLIPglu and FLIPrib). Introducing substitution F113A into the ThuE moiety of FLIPsuc4μ produced FLIPsuc10μ, which has a binding constant (Kd) of 10 μM for sucrose, thus providing a range for sucrose quantification between at least 1 μM and 90 μM (Table 1).

Assay [4] has as its target Alicyclobacillus acidocaldarius maltose binding protein (AaMalE). To be noted: cited from earlier work.
In assay [5] the target is Agrobacterium tumefaciens AtThuE sensor FLIPsuc4μ variant Y246A (FLIPsuc15m, FLIPsucY246A) (Agrobacterium fabrum, UniProt A9CF11, N212D/Y266A). The experiment in a line: in vitro FRET titration of affinity mutant FLIPsuc15m. In kind it is binding. To be noted: for Δratio: in vitro, no binding to saturated binding. As to the method: as §3, §5
In assay [6] the target is Agrobacterium tumefaciens AtThuE sensor FLIPsuc4μ variant W244A (FLIPsuc46m, FLIPsucW244A) (Agrobacterium fabrum, UniProt A9CF11, N212D/W264A). The experiment in a line: in vitro FRET titration of affinity mutant FLIPsuc46m. The class given is binding. As to the method: as §3, §5
Assay [7] concerns the target Agrobacterium tumefaciens AtThuE sensor FLIPsuc4μ variant W283A (FLIPsuc88μ, FLIPsucW283A) (Agrobacterium fabrum, UniProt A9CF11, N212D/W303A). Nature of the assay: in vitro FRET titration of affinity mutant FLIPsuc88μ. The class given is binding. The note with it: in vitro; for Δratio: no binding to saturated binding. As to the method: as §3, §5
The target of assay [8] is Agrobacterium tumefaciens ThuE (AtThuE) sucrose binding protein carrying N192D (SEQ ID NO: 2) fused between ECFP and EYFP, sensor FLIPsuc4μ (FLIPsuc), wt (indicator SEQ ID NO: 4) (Agrobacterium fabrum, UniProt A9CF11, N212D). The experiment in a line: in vitro FRET titration of purified sensor FLIPsuc4μ.
Source text: as §1, §2, §3, §4

The target of assay [9] is Agrobacterium tumefaciens AtThuE sensor FLIPsuc4μ variant D115A (FLIPsuc1m, FLIPsucD115A) (Agrobacterium fabrum, UniProt A9CF11, D135A/N212D). Nature of the assay: in vitro FRET titration of affinity mutant FLIPsuc1m. The class given is binding. The note with it: for Δratio (delta ratio): no binding to saturated binding. As for the experimental part: as §3, §5
Assay [10] concerns the target Agrobacterium tumefaciens AtThuE sensor FLIPsuc4μ variant F113A (FLIPsuc10μ, FLIPsucF113A) (Agrobacterium fabrum, UniProt A9CF11, F133A/N212D). Nature of the assay: in vitro FRET titration of affinity mutant FLIPsuc10μ. The class given is binding. To be noted: for Δratio (change in ratio): in vitro, no binding to saturated binding. As to the method: as §3, §5
[11] abbreviates: 20 mM MOPS pH 7, FRET titration.

For the compound `OC[C@H]1O[C@@H](O[C@H]2[C@H](O)[C@@H](O)C(O)O[C@@H]2CO)[C@H](O)[C@@H](O)[C@@H]1O` (some centres unmarked) [cellobiose], in assay [1], the “recognition (binding)” value was “not recognized”.
For `OCC1(O)OC[C@@H](O)[C@@H](O)[C@@H]1O` (some centres unmarked) [Fructose], the “recognition (binding)” value in assay [1] is recorded as “not recognized”.
The same measure, in the same setting: the result for `OC[C@H]1OC(O)[C@H](O)[C@@H](O)[C@H]1O` (some centres unmarked) [galactose] reads “not recognized”.
On to `OC[C@H]1OC(O)(CO)[C@@H](O[C@H]2O[C@H](CO)[C@@H](O)[C@H](O)[C@H]2O)[C@@H]1O` (some centres unmarked) [turanose], for which the “binding (extent relative to sucrose)” value in [1] is given as “to the same extent or better than sucrose”.
Take `OC[C@H]1O[C@H](O[C@H]2[C@H](O)[C@@H](O)[C@@H](O[C@H]3[C@H](O)[C@@H](O)[C@@H](O[C@H]4[C@H](O)[C@@H](O)C(O)O[C@@H]4CO)O[C@@H]3CO)O[C@@H]2CO)[C@H](O)[C@@H](O)[C@@H]1O` (some centres unmarked) [maltotetraose]: the “inhibition of uptake of radiolabeled maltose” value (“inhibition” for short) in assay [2] is given as “inhibited”.
`OC[C@H]1O[C@H](O[C@H]2O[C@H](CO)[C@@H](O)[C@H](O)[C@H]2O)[C@H](O)[C@@H](O)[C@@H]1O` [trehalose]: the “binding (extent relative to sucrose)” value in assay [1] is given as “to the same extent or better than sucrose”.
On the same count and under the same terms, the result for `OC[C@H]1O[C@H](OC[C@H]2OC(O)(CO)[C@@H](O)[C@@H]2O)[C@H](O)[C@@H](O)[C@@H]1O` (some centres unmarked) [palatinose] reads “to lesser extent”.
As a reminder, the Kd is a measure of binding affinity in units of concentration. In the case of `OC[C@H]1O[C@H](O[C@H]2[C@H](O)[C@@H](O)C(O)O[C@@H]2CO)[C@H](O)[C@@H](O)[C@@H]1O` (some centres unmarked) [maltose], the Kd in assay [3] (setting [11]) is 1530 µM; in assay [3] (FRET titration), 1500 µM; in assay [4] it was 1.5 µM; in [5], 56 µM; in assay [6], 26500 µM; in [7] (setting [11]) it was 265 µM. The Kd was found to be 0.23 µM in [8], 51 µM in assay [9] (setting [11]) and 0.12 µM in assay [10]. Moreover, the figures for the “Δratio (delta ratio)” value in assay [3] and in assay [9] were 0.39 and 0.37, respectively. The Δratio in assay [5] came to 0.14; in assay [6] (in vitro, no binding to saturated binding), 0.42; in [7] it was 0.25. The “binding (extent relative to sucrose)” value in [1] is on record as “to the same extent or better than sucrose”. Besides, the “affinity relative to that for sucrose” value in assay [1] is reported as “higher”. Further, the “Δratio (maximum ratio change)” value in assay [1] is recorded as 0.21. Also, the “Δratio (change in ratio)” value in assay [10] was found to be 0.12.
On to cyclodextrins, for which the “inhibition” value in assay [2] is on record as “inhibited”.
In the case of `C[C@H]1O[C@H](O[C@H]2[C@H](O)[C@@H](O)[C@@H](O[C@H]3[C@H](O)[C@@H](O)C(O)O[C@@H]3CO)O[C@@H]2CO)[C@H](O)[C@@H](O)[C@@H]1N[C@H]1C=C(CO)[C@@H](O)[C@H](O)[C@H]1O` (some centres unmarked) [acarbose], the “inhibition” value in assay [2] is listed as “inhibited”.
As to `OC[C@H]1OC(O)[C@H](O)[C@@H](O)[C@@H]1O` (some centres unmarked) [glucose], the Kd in [3] (setting [11]) came out at 9110 µM; in assay [3] (FRET titration) it was 9100 µM; in assay [5], 554 µM; in assay [7] (setting [11]) it was 7210 µM; in assay [7] (FRET titration), 7200 µM; in [8] it was 27 µM. Besides, the results for the Kd in [9] (setting [11]), in assay [9] (FRET titration) and in [10] were 16200 µM, 16000 µM and 106 µM, respectively. For the same compound, the “Δratio (delta ratio)” value in [3] worked out at 0.44; in [9], 0.50. For the same compound, the results for the Δratio in [5] and in assay [7] were 0.07 and 0.21, respectively. The “binding (extent relative to sucrose)” value in assay [1] was “to lesser extent”. For the same compound, the “affinity relative to that for sucrose” value in [1] is “in the same range as that for sucrose”. The “Δratio (maximum ratio change)” value in assay [1] is recorded as 0.18. Besides, the “Δratio (change in ratio)” value in assay [10] is listed as 0.12.
